In US7541478B2, “Coumarin derivative and use thereof” (Takeda Pharmaceutical Company Limited, priority 2004, dated 2009):

Experiments:
[1] = Oral absorbability: blood level of Compound X after oral administration to rabbits; format: in vivo; settings: male New Zealand white rabbits (n=3), 0.5% methylcellulose suspension, 10 mg/kg in terms of Compound X, blood level of Compound X measured
Method: [Method] Male New Zealand white rabbits (n=3) were forced to take Compound A, B or X orally (0.5% suspension in methylcellulose, the dose was 10 mg/kg in terms of Compound X). A blood level of Compound X was measured with time to determine the maximum blood level (Cmax) and time required for reaching the maximum blood level (Tmax). Compound X:(2E)-3-{3-[7-chloro-3-(2-{[4-fluoro-2-(trifluoromethyl)phenyl]amino}-2-oxoethyl)-6-methyl-2-oxo-2H-chromen-4yl]phenyl}acrylic acid described in International Publication WO02/06264.

[2] = molecular target: T1, mouse abdominal macrophage microsome ACAT (Mus musculus, UniProt Q61263); assay: ACAT inhibitory activity (3H-oleyl-CoA, cholesteryl ester formation); format: biochemical; settings: microsome from thioglycolate-stimulated C57BL6J mouse macrophage; pre-incubated 37° C. 10 minutes, reaction 37° C. 20 minutes; read-out: IC50 (ACAT inhibiting rate 50%)
T1 construct: then ultracentrifuged (4° C., 50,000 rpm, 90 minutes) to prepare a microsome; from tissue; host or cells: abdominal (peritoneal) macrophages of thioglycolate-stimulated C57BL6J mice, cultured 24 h with rabbit beta-VLDL; microsomal fraction
T1 sequence (Q61263 1-540): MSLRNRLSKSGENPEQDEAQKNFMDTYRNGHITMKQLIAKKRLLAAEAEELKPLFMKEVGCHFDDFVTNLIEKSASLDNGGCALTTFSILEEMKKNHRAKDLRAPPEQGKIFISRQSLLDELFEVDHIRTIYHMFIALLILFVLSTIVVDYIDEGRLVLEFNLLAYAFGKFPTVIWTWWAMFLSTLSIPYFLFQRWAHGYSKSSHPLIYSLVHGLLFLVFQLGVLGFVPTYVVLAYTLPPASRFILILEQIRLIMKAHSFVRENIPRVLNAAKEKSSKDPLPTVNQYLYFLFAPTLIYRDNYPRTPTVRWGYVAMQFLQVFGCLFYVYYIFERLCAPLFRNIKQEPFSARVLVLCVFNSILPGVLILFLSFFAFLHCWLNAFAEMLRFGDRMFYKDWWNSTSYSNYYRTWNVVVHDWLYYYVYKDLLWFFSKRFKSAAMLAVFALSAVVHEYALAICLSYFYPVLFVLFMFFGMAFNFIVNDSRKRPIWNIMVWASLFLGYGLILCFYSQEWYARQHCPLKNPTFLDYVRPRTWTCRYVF
Method: According to the method of Hakamada et al. (Experimental Medicine Supplement vol. 14, No. 12, Circulation Research Protocol, p, 49-52, 1996), an abdominal macrophage was taken from a thioglycolate-stimulated C57BL6J mouse and cultured for 24 hours in a RPMI 1640-25 mM HEPES (pH7.0) medium containing rabbit β-very low density lipoprotein (β-VLDL, 150 μg cholesterol/ml) which had been prepared by the method of Ishii et al. (Ishii I et al., Arterioscler, Thromb., 12, 1139-1145, 1992). The abdominal macrophage was then collected by centrifugation (4° C., 1.000 rpm, 5 minutes) and sonicated. The sonicated liquid was centrifuged (4° C., 5000 rpm, 15 minutes) and then ultracentrifuged (4° C., 50,000 rpm, 90 minutes) to prepare a microsome. The microsome thus obtained was used for measuring ACAT inhibitory activity of a test compound as mouse abdominal macrophage microsome ACAT.
A mixture of a test compound, cholesterol-albumin-containing-Tris-HCL buffer (pH 7.5) and mouse abdominal macrophage microsome ACAT was pre-incubated at 37° C. for 10 minutes, and ^3H-oleyl-CoA was added to react at 37° C. for 20 minutes. […] The extract was subjected to silica gel thin chromatography (petroleum ether:diethyl ether:acetic acid=9:1:0.1 v/v), and the resulting ^3H-CE fraction was measured with a scintillation counter. […]

Cmax (maximum blood level of Compound X) [1]: 132 ± 29 ng/mL | Tmax (time required for reaching the maximum blood level) [1]: 40.2 ± 17.4 min | IC50 [2]: 1960 nM
Substance: monocalcium bis((2E)-3-[3-[7-chloro-3-(2-[[4-fluoro-2-(trifluoromethyl)phenyl]amino]-2-oxoethyl)-6-methyl-2-oxo-2H-chromen-4-yl]phenyl]acrylate) trihydrate [Compound A]
